The values below come from ChEMBL document CHEMBL1145818, “Effect of detergent on "promiscuous" inhibitors” (J Med Chem, 2003).

The target of test [1] is Chymotrypsinogen A (Bos taurus) (UniProt P00766). The test can be described thus: Concentration required for the inhibition of Chymotrypsinogen.
In test [2] the target is T1, Dihydrofolate reductase (Homo sapiens) (UniProt P00374).
T1 sequence (whole entry): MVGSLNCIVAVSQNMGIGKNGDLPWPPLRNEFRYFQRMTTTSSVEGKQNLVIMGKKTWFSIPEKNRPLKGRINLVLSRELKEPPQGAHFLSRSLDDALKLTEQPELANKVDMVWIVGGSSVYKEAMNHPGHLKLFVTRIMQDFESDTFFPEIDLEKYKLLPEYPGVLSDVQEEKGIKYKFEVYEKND
The test can be described thus: Concentration required for the inhibition of dihydrofolate reductase.

Turning to `Nc1c(/N=N/c2ccc(-c3ccc(/N=N/c4cc(S(=O)(=O)O)c5ccccc5c4N)cc3)cc2)cc(S(=O)(=O)O)c2ccccc12`, the Concentration amounted to 40 µM in test [1] and 0.4 µM in test [2].
